Assay results from patent US20050192341A1, “Non-psychotropic cannabinoids for prevention of cognitive impairment” (priority 2002, published 2005).

What was measured:
Sprague Dawley rats = experiment: Neuronal vacuolization and necrosis histopathology after single high dose injection in rats; format: in vivo, rat; settings: for Average number of vacuoles / Average number of necrotic foci: males and females, all sections; for Average number of vacuoles / Number of animals with necrotic foci: dexanabinol 50 mg/kg i.v.; for Average number of vacuoles / Average number of necrotic foci / Number of animals with necrotic foci / Clinical signs post-dose: MK-801 5 mg/kg s.c.; for Average number of necrotic foci: dexanabinol 50 mg/kg i.v. in CREMOPHOR EL:ethanol; for Number of animals with necrotic foci: cingulated gyrus, males and females combined; for Clinical signs post-dose: study day 1, dexanabinol 50 mg/kg i.v. (undistinguishable from vehicle, transient)
Description: The purpose of this study was to characterize the potential of dexanabinol to protect against neuronal vacuolization and cell death in the retrosplenial and cingulated neocortex regions of the brain in Sprague Dawley rats following intravenous administration of a single high dose of […]. It has previously been reported that neuronal vacuolization and cell death are among the commonly detected adverse side effects of NMDA antagonists in rodents (Olney J. W. et al., Science 244: 1360-2, 1989).
Sprague Dawley rats (140-250 g body weight, Charles River Laboratory, Mich., USA) were maintained under controlled environmental conditions, with 12:12 hour light dark cycle, and had free access to food and water. The animals were acclimated for at least seven days prior to study day 1. Animals were randomly assigned to the following treatment groups: saline (negative control), CREMOPHOR EL®:ethanol (70:30 w/w respectively supplemented with 0.5% w/v dl-α-tocopherol and 0.01% w/v edetic acid; vehicle) and 50 mg/kg dexanabinol. For all groups the volume dosage was 10 ml/kg and the treatments were administered via bolus intravenous injection into the lateral tail vein of animals. CREMOPHOR EL®:ethanol and dexanabinol 50 mg/ml were diluted 1:10 into saline prior to injection. M-801 at a dose of 5 mg/kg administered subcutaneously at a volume dosage of 5 ml/kg was used as positive control, its vehicle being saline.
Each treatment group consisted of six males and six females, which were at first analyzed separately to assess gender influence. Clinical observations, including observations for mortality or moribundity, were recorded pretest, once daily, and when a change was noted during the twice-daily observations. Body weights were recorded pretest and predose on study day 1. Six animals per sex per group per time point were submitted for necropsy at approximately 4 and 12 hours post-dose, and 1, 3, and 7 days post-dose. At the predetermined time points, the animals were humanely euthanized via intraperitoneal injection of 100 mg/kg sodium pentobarbital to achieve deep anesthesia.
Whole body perfusion were performed using heparinized saline for approximately one minute followed by 10% neutral buffered fornalin for approximately eight to ten minutes on all animals. The calvarium was removed, leaving the brain in the cranial cavity. The heads (with the brain in the cranial cavity) or brains (removed only after 24 hours left in situ in 10% neutral buffered formalin) were placed into 10% neutral buffered formalin until further process toward pathological analysis.
The brains from all animals at all time points were processed and evaluated as follows. The brains from the 4 and 12 hours time point animals were removed and sectioned using a rat brain trimming matrix to yield two coronal sections including the posterior cingulated gyrus (retrosplenial area of the brain). All sections were embedded in glycol methacrylate, sectioned at approximately 2 microns, and stained with hematoxylin and eosin. Brains from the 1, 3 and 7 days post-dose animals were removed and sectioned to yield three coronal sections spanning the brain from the posterior cingulate gyrus and extending rostral to the level of the basal nuclei. These sections were embedded in paraffin and sectioned twice at approximately 5-8 microns, with one section stained with hematoxylin and eosin and the other with Fluoro-Jade B, which selectively stains dying neuronal cells. The slides were microscopically evaluated in a blinded fashion. No statistical analyses were performed.

Sprague-Dawley male rats [1] = experiment: Four vessel occlusion (4 VO) in rats, neurological score; format: in vivo, rat
Description: This model was used to test the ability of dexanabinol or related compounds to act as neuroprotectant when administered prior to surgery. The blood supply to the rat brain arrives via the two vertebral and two common carotid arteries. Transient occlusion of all four vessels results in global ischemia, as would occur during cardiac arrest in humans. Global ischemia results in neurological deficits, including short-term memory deficits, and a selective loss of neurons, including pyramidal cells, in the CA1 field of the hippocampus, similarly to the situation observed in MCI. The ability of compounds to reduce the neurological deficits and increase neuronal survival in this model is considered indicative of their potential in preventing brain damage related to cardiac arrest, and is also predictive for ischemic damages and MCI caused by surgery, for instance cardiac surgery performed or not under cardiopulmonary bypass. […] Transient ischemia causes irreversible injury to a few, specific populations of highly vulnerable neurons.
Sprague-Dawley male rats (180-400 g body weight, Anilab, Israel) were anesthetized using 4% halothane for induction and 1% halothane for maintenance, in a mixture of 70% N2O and 30% O2. Animals were submitted to four-vessel occlusion according to the procedure of Pulsinelli et al. (Pulsinelli W. A. et al., Stroke 10: 267, 1979) in a two-stage operation. On the first day the vertebral arteries were occluded. A midline skin incision was performed above the spinal cord behind the skull occipital bone. Muscles were separated and cut until the C1 vertebra was isolated. The alar foramina were located and the vertebral arteries were coagulated via the alar foramina. Muscles and skin were closed in two layers. On the same day, the common carotid arteries (CCA) were isolated through a central neck midline incision. A loose suture material was positioned around them and the skin was closed.
On the second day, the animals were lightly anesthetized using ether. The skin was opened and CCA were closed for 20 minutes with arterial clips. Animals were deprived of food, with free access to water, overnight between the two stages of the study. Loss of righting reflex was the principal criterion for assuring severe forebrain ischemia in the 4 VO model in the rat. Therefore, animals not showing this sign were not included in the study. […]
Animals were monitored for their general clinical appearance at predetermined time points: before vertebral occlusion; before and 5 hours after CCA occlusion; then 1, 2, and 3 days after CCA occlusion. Body weight was recorded at baseline and at each follow-up session.
The total neurological score was calculated by adding the results of all tests for each animal and the maximal score obtainable for normal animals is 16 points. […]

Sprague-Dawley male rats [2] = experiment: Cognitive impairment assessment following 4 VO, Morris water maze; format: in vivo, rat
Description: One week after CCA occlusion, the cognitive impairment was measured using a Morris water maze apparatus. The ability of the animals to perform in this test is predictive of their learning and memory capacity. A circular metal pool 150 cm in diameter and 74 cm in height was filled with water at 25° C. to a height of 54 cm. A platform 10 cm in diameter was placed 2 cm below the water surface. The pool was divided (virtually) into 4 equal surface areas identified by arbitrary north, south, east and west coordinates. The platform was located in the middle of the southwest quadrant 25 cm from the pool rim. The swim path was monitored by video camera connected to a computer (View Point, France). […] Animals that found the hidden platform were allowed to stay on it for 30 seconds.
Animals were tested in nine consecutive trials one week following the 4 VO and the learning capacity was measured as the amount of time spent by the animal swimming before finding the hidden platform. Each trial was performed for 1 minute and there were 5 minute intervals between the trials. One day later, eight days post-occlusion, the animals were tested again in order to assess their memory.
Three groups of at least 8 animals each were tested in this study: 1) sham operated animals; 2) operated animals treated 15 minutes before CCA occlusion with HPCD vehicle; 3) operated animals treated 15 minutes before CCA occlusion with 8 mg/kg dexanabinol, prepared and injected intravenously as previously described in example 2.
The average latency time in seconds elapsed until platform localization was calculated for each treatment group as an average of three consecutive trials. […] During the first six trials dexanabinol treated animals learned similarly to vehicle treated animals.

[3] = system: individuals suffering from severe traumatic brain injury; settings: severe traumatic brain injury patients; not significant statistically; cited from earlier work

SMILES	Average number of vacuoles (Sprague Dawley rats; 4 hrs post-dosing)	Average number of vacuoles (Sprague Dawley rats; 12 hrs post-dosing)	Average number of necrotic foci (Sprague Dawley rats; Day 1 post-dosing)	Average number of necrotic foci (Sprague Dawley rats; Day 3 post-dosing)	Average number of necrotic foci (Sprague Dawley rats; Day 7 post-dosing)	Number of animals with necrotic foci (Sprague Dawley rats; Day 1 post-dosing)	Number of animals with necrotic foci (Sprague Dawley rats; Day 3 post-dosing)	Number of animals with necrotic foci (Sprague Dawley rats; Day 7 post-dosing)	Highest tolerated dose in rats (Sprague Dawley rats; single dose, to the first approximation)	Clinical signs post-dose (Sprague Dawley rats)	Time to full recovery of neurological score to sham animals levels (Sprague-Dawley male rats [1]; 8 mg/kg i.v. 15 minutes before CCA occlusion)	Decrease in neurological score (Sprague-Dawley male rats [1]; 5 hours after occlusion, 8 mg/kg i.v. 15 minutes before CCA occlusion, maximal score 16 points)	Neurological score compared with sham operated group (Sprague-Dawley male rats [1]; 48 hours post-occlusion, 8 mg/kg i.v.)	Neurological outcome compared with vehicle treated or operated untreated animals (Sprague-Dawley male rats [1]; from 24 hours post-occlusion on, 8 mg/kg i.v.)	Average time to localize the hidden platform (Sprague-Dawley male rats [2]; average over the ten trials measuring learning and memory, 8 mg/kg i.v., sham 34.8 seconds)	Time less than sham operated animals to localize the hidden platform (Sprague-Dawley male rats [2]; average over the ten trials, 8 mg/kg i.v., difference not statistically significant)	Reduction in average time for platform localization over vehicle treated animals (memory) (Sprague-Dawley male rats [2]; day 8 post-occlusion, 8 mg/kg i.v. 15 minutes before CCA occlusion)	Reduction in average time for platform localization over vehicle control group (learning) (Sprague-Dawley male rats [2]; last three of nine trials, one week after 4 VO, 8 mg/kg i.v. 15 minutes before CCA occlusion)	Neurological outcome as assessed by the Galveston Orientation and Amnesia Test [3]
CCCCCCC(C)(C)c1cc(O)c2c(c1)OC(C)(C)[C@H]1CC=C(CO)C[C@H]21 [Dexanabinol, 1,1-dimethyl-(3S,4S)-7-hydroxy-Δ^6-tetrahydrocannabinol]	None	None	0.5	0.6	>3	0/12	0/12	0/12	~50 mg/kg	prostration and decreased activity	≤ 72 hours	about 4 points	not statistically different from the sham operated group	significantly better neurological outcome	30.8 s	4 s	~22%	more than 42%	trend existed for the dexanabinol treated patients to achieve better neurological outcome
C[C@]12N[C@H](Cc3ccccc31)c1ccccc12 [MK-801, reference compound]	–	–	–	–	–	–	–	–	–	ataxia, tremors and prostration	–	–	–	–	–	–	–	–	–
